The text below walks through data of ChEMBL document CHEMBL3580555, “Design, Synthesis, and Biological Evaluation of Novel Imidazo[1,2-a]pyridine Derivatives as Potent c-Met Inhibitors” (ACS Med Chem Lett, 2015).

In general, IC50 refers to the midpoint of a concentration-inhibition curve. Broadly, the inhibition is the share of the control response that was lost under treatment.

Molecules are shown by their SMILES.

Hepatocyte growth factor receptor (Homo sapiens), sequence (P08581 whole entry): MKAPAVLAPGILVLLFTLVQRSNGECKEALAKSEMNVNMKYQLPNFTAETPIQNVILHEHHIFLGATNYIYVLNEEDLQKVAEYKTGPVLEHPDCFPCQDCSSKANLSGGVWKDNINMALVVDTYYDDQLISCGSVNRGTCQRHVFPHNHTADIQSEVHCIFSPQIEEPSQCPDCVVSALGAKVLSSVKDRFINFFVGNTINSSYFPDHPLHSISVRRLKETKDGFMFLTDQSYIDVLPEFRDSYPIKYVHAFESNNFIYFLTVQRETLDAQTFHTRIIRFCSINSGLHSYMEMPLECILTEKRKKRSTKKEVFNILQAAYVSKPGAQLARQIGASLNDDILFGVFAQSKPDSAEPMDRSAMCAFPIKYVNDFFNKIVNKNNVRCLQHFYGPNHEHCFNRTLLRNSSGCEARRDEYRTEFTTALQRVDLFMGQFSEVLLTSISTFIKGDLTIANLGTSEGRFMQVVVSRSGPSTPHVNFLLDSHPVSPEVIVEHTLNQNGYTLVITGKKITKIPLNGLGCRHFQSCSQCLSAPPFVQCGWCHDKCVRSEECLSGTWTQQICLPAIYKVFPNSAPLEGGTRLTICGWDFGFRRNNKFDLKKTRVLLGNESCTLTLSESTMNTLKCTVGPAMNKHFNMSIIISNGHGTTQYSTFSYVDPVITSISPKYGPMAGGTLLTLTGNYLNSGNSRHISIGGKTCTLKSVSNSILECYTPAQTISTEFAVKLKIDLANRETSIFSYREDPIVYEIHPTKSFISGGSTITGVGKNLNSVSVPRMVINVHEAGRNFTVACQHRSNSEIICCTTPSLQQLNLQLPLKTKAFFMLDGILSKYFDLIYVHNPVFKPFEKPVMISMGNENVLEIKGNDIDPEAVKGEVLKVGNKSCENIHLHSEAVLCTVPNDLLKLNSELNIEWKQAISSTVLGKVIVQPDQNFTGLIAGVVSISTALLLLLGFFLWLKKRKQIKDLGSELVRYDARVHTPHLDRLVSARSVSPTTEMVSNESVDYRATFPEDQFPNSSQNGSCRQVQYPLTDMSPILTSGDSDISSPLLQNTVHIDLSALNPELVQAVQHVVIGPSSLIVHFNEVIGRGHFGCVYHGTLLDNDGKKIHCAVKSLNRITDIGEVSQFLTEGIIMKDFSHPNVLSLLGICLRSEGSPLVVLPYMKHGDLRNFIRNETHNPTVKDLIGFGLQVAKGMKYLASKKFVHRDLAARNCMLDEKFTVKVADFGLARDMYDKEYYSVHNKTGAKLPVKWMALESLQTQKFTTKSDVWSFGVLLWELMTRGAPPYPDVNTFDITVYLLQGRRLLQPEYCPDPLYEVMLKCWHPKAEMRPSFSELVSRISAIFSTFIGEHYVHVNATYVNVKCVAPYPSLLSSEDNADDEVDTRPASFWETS

For the first series, the system named is Liver. Kind of series: Drug formation in CD1 mouse liver microsomes treated with 2-Fluoro-4-(8-fluoro-3-(quinolin-6-ylmethyl)imidazo[1,2-a]pyridin-6-yl)-N-methylbenzamide after 60 mins by UPLC/Q-TOF MS/MS analysis. In kind it is ADME. As to conditions: 1 h. (In general: Liver microsomes are a subcellular fraction often used to study metabolism.)
With `CNC(=O)c1ccc(-c2cc(F)c3ncc(C(O)c4ccc5ncccc5c4)n3c2)cc1F` (stereo not drawn), the Drug metabolism entry is “metabolite_detected”.

In the next series the test system is Liver microsome. Kind of series: Drug formation in human liver microsomes treated with 2-Fluoro-4-(8-fluoro-3-(quinolin-6-ylmethyl)imidazo[1,2-a]pyridin-6-yl)-N-methylbenzamide after 60 mins by UPLC/Q-TOF MS/MS analysis. In kind it is ADME. Particulars: 1 h.
`CNC(=O)c1ccc(-c2cc(F)c3ncc(C(O)c4ccc5ncccc5c4)n3c2)cc1F` (stereo not drawn): the Drug metabolism entry was “metabolite_detected”.

System in another series: not listed separately
Kind of series: Drug formation in monkey liver microsomes treated with 2-Fluoro-4-(8-fluoro-3-(quinolin-6-ylmethyl)imidazo[1,2-a]pyridin-6-yl)-N-methylbenzamide after 60 mins by UPLC/Q-TOF MS/MS analysis. In kind it is ADME, Macaca mulatta. Particulars: rhesus monkey, 1 h.
`CNC(=O)c1ccc(-c2cc(F)c3ncc(C(O)c4ccc5ncccc5c4)n3c2)cc1F` (stereo not drawn): the Drug metabolism result is recorded as “metabolite_detected”.

The next series has as its system Liver microsome. The series is described as follows: Drug formation in beagle dog liver microsomes treated with 2-Fluoro-4-(8-fluoro-3-(quinolin-6-ylmethyl)imidazo[1,2-a]pyridin-6-yl)-N-methylbenzamide after 60 mins by UPLC/Q-TOF MS/MS analysis. In kind it is ADME, Canis lupus familiaris. As to conditions: 1 h.
Consider `CNC(=O)c1ccc(-c2cc(F)c3ncc(C(O)c4ccc5ncccc5c4)n3c2)cc1F` (stereo not drawn), for which the Drug metabolism entry is on record as “metabolite_detected”.

System in another series: not listed separately
The series is described as follows: Antiproliferative activity against human EBC1 cells after 72 hrs. As to conditions: EBC-1, 72 h.
The compound `O=C(NC1CCOCC1)c1ccc(-c2cc(F)c3ncc(Cc4ccc5ncccc5c4)n3c2)cc1F` displayed an IC50 of 70.5 nM.
Same read-out and setting: for `CNC(=O)c1ccc(-c2cc(F)c3ncc(C(O)c4ccc5ncccc5c4)n3c2)cc1F` (stereo not drawn) the value was 3020 nM; for `O=C(NCC1CCCCN1)c1ccc(-c2cc(F)c3ncc(Cc4ccc5ncccc5c4)n3c2)cc1F` (stereo not drawn), 277 nM; for `O=C(NC1CCCNC1)c1ccc(-c2cc(F)c3ncc(Cc4ccc5ncccc5c4)n3c2)cc1F` (stereo not drawn), 138 nM.
On the same count and under the same terms, the figure for `CNC(=O)c1cc(-c2cc(F)c3ncc(Cc4ccc5ncccc5c4)n3c2)ccc1Cl` is 946 nM; for `N#Cc1cccc(-c2cc(F)c3ncc(Cc4ccc5ncccc5c4)n3c2)c1` it is 107 nM; for `CCO/N=C(\C)c1cc(F)c2ncc(Cc3ccc4ncccc4c3)n2c1` it is 1480 nM.
On to `Fc1cc(F)cc(-c2cc(F)c3ncc(Cc4ccc5ncccc5c4)n3c2)c1`, for which half-maximal inhibition (IC50) was put at 790 nM.
On the same count and under the same terms, the figure for `O=C(c1ccc(-c2cc(F)c3ncc(Cc4ccc5ncccc5c4)n3c2)cc1F)N1CCC2(COC2)C1` is 406 nM; for `Fc1cc(-c2ccsc2)cn2c(Cc3ccc4ncccc4c3)cnc12` it is 444 nM.
Still for that read-out and setting: the figure for `O=C(NCCN1CCOCC1)c1ccc(-c2cc(F)c3ncc(Cc4ccc5ncccc5c4)n3c2)cc1F` is 52 nM.
Same read-out and setting: for `N#Cc1ccc(-c2cc(F)c3ncc(Cc4ccc5ncccc5c4)n3c2)cc1F` the value was 145 nM.
As to `O=C(NCCCN1CCCC1)c1ccc(-c2cc(F)c3ncc(Cc4ccc5ncccc5c4)n3c2)cc1F`, it took 161 nM to reach half-maximal inhibition (IC50).
On the same count and under the same terms, the figure for `Fc1cc(-c2cnn(C3CCNCC3)c2)cn2c(Cc3ccc4ncccc4c3)cnc12` is 1460 nM; for `CN(C)CCNC(=O)c1ccc(-c2cc(F)c3ncc(Cc4ccc5ncccc5c4)n3c2)cc1F` it is 49 nM; for `Cn1cc(-c2cc(F)c3ncc(Cc4ccc5ncccc5c4)n3c2)cn1` it is 270 nM.
Compound `CNC(=O)c1cc(-c2cc(F)c3ncc(Cc4ccc5ncccc5c4)n3c2)ccc1F` yielded a half-maximal inhibitory concentration (IC50) of 246 nM.
Compound `CNC(=O)c1cccc(-c2cc(F)c3ncc(Cc4ccc5ncccc5c4)n3c2)c1` showed an IC50 of 400 nM.
The compound `Fc1cc(-c2ccc(N3CCOCC3)nc2)cn2c(Cc3ccc4ncccc4c3)cnc12` returned a half-maximal inhibitory concentration (IC50) of 225 nM.
On the same count and under the same terms, for `O=C(NCc1cc(F)cc(F)c1)c1ccc(-c2cc(F)c3ncc(Cc4ccc5ncccc5c4)n3c2)cc1F` the value was 53.6 nM; for `CNC(=O)c1ccc(-c2cc(F)c3ncc(Cc4ccc5ncccc5c4)n3c2)cc1OC`, 59.6 nM; for `COc1ccc(-c2cc(F)c3ncc(Cc4ccc5ncccc5c4)n3c2)cc1F`, 407 nM.
The same measure, in the same setting: the figure for `Cn1cc(-c2ccc3nnc(C(F)(F)c4ccc5ncccc5c4)n3n2)cn1` [JNJ-38877605] is 9.5 nM.
Same read-out and setting: for `OCCn1cc(-c2cc(F)c3ncc(Cc4ccc5ncccc5c4)n3c2)cn1` the value was 340 nM; for `O=C(NCc1ccccn1)c1ccc(-c2cc(F)c3ncc(Cc4ccc5ncccc5c4)n3c2)cc1F`, 5550 nM.
For the compound `CN1CCN(C(=O)c2ccc(-c3cc(F)c4ncc(Cc5ccc6ncccc6c5)n4c3)cc2F)CC1`, it took 869 nM to reach half-maximal inhibition (IC50).
Still for that read-out and setting: the figure for `C[C@@H](Oc1cc(-c2cnn(C3CCNCC3)c2)cnc1N)c1c(Cl)ccc(F)c1Cl` [CRIZOTINIB] is 21.8 nM.
The same measure, in the same setting: the figure for `N#Cc1ccc(-c2cc(F)c3ncc(Cc4ccc5ncccc5c4)n3c2)cn1` is 188 nM.

System in another series: not listed separately
Kind of series: Antiproliferative activity against human MKN45 cells after 72 hrs. In kind it is functional, cell-based. As to conditions: MKN-45, 72 h.
`Cn1cc(-c2ccc3nnc(C(F)(F)c4ccc5ncccc5c4)n3n2)cn1` [JNJ-38877605] had a 50% inhibitory concentration (IC50) of 10.9 nM.
The same measure, in the same setting: for `C[C@@H](Oc1cc(-c2cnn(C3CCNCC3)c2)cnc1N)c1c(Cl)ccc(F)c1Cl` [CRIZOTINIB] the value was 38.1 nM.

System in the next series: not listed separately
Kind of series: Antiproliferative activity against human SNU5 cells after 72 hrs. In kind it is functional, cell-based. Particulars: SNU-5, 72 h.
As to `Cn1cc(-c2ccc3nnc(C(F)(F)c4ccc5ncccc5c4)n3n2)cn1` [JNJ-38877605], half-maximal inhibition (IC50) required 15.8 nM.
Same read-out and setting: for `C[C@@H](Oc1cc(-c2cnn(C3CCNCC3)c2)cnc1N)c1c(Cl)ccc(F)c1Cl` [CRIZOTINIB] the value was 20.4 nM.

For another series, the system named is BaF3. Kind of series: Antiproliferative activity against mouse BAF3/TPR-Met cells after 72 hrs. In kind it is functional, cell-based. Particulars: BaF3, 72 h.
Compound `Cn1cc(-c2ccc3nnc(C(F)(F)c4ccc5ncccc5c4)n3n2)cn1` [JNJ-38877605] yielded a concentration for half-maximal inhibition (IC50) of 17.6 nM.
Still for that read-out and setting: for `C[C@@H](Oc1cc(-c2cnn(C3CCNCC3)c2)cnc1N)c1c(Cl)ccc(F)c1Cl` [CRIZOTINIB] the value was 127 nM.

The next series addresses Hepatocyte growth factor receptor (Homo sapiens) (UniProt P08581). Kind of series: Inhibition of C-Met (unknown origin) using polu (Glu,Tyr)4:1 substrate at 1 uM after 30 mins incubation by multi-well spectrophotometry.
Conditions: not given
Compound `Cn1cc(-c2cn3c(Cc4ccc5ncccc5c4)cnc3cc2Cl)cn1` returned an inhibition of 24.5%.
Still for that read-out and setting: the figure for `Cn1cc(-c2cn3c(Cc4ccc5ncccc5c4)cnc3cc2C(F)(F)F)cn1` is 5.9%; for `Cn1cc(-c2cc(C(F)(F)F)c3ncc(Cc4ccc5ncccc5c4)n3c2)cn1` it is 9.6%.

For a further series the target is unchanged. Kind of series: Inhibition of C-Met (unknown origin) using polu (Glu,Tyr)4:1 substrate at 100 uM after 30 mins incubation by multi-well spectrophotometry.
Conditions: not given
Consider `Cn1cc(-c2cn3c(Cc4ccc5ncccc5c4)cnc3cc2C#N)cn1`, for which the inhibition stood at 33.3%.
The same measure, in the same setting: for `Cn1cc(-c2cc(C#N)c3ncc(Cc4ccc5ncccc5c4)n3c2)cn1` the value was 34.5%.
